Data reported in patent US6706738B2, “Substituted bicyclic heteroaryl compounds and their use as integrin antagonists” (Aventis Pharma Limited, priority 1999, dated 2004).

## Cc1ccccc1Nc1nc2ccc(CC(=O)Nc3ccc(C(C)CC(=O)O)nc3)cc2o1 (racemic) [Example 1, (3RS)-3-{5-[2-(2-o-Tolylamino-benzoxazol-6-yl)-acetylamino]-pyrid-2-yl}-butyric acid]
  melting point: 195 to 196 °C (dec.)
